Marks after values point to notes of the source that are not given here.
Experiments:
[1] = system: TC-1 tumor cells, expressing the oncogenic E6 and E7 proteins of HPV16; test: Therapeutic vaccination of mice carrying TC-1 tumors; assay type: in vivo, C57BL/6 mice
Experimental: The following groups of mice were included in the study: • Group 1: (n=5) 40% v/v DMSO/WFI emulsified 1:1 with Montanide ISA VG51. • Group 2: (n=5) Reconstitution composition (750 μL 0.1M Citric acid in water, 62.5 μL Propylene Glycol, 125 μL Ethanol and 62.5 μL Cremophor EL per mL) emulsified 1:1 with Montanide ISA VG51. • Group 3: (n=10) SLP […] and 20 μg CpG ODN1826/mouse dissolved in 40% v/v DMSO/WFI, emulsified 1:1 with Montanide ISA VG51. • Group 4: (n=10) SLP […] (SEQ ID NO: 6) and 20 μg CpG ODN1826/mouse dissolved in Reconstitution composition (750 μL 0.1M Citric acid in water, 62.5 μL Propylene Glycol, 125 μL Ethanol and 62.5 μL Cremophor EL per mL), emulsified 1:1 with Montanide ISA VG51.
For mice in Group 1, a solution was prepared by admixing and subsequently swirling 400 μL DMSO and 600 μL WFI. The solution was taken up in a 2 mL Luer-Lock syringe (Syringe A). In another 2 mL Luer-Lock syringe (Syringe B) 1 mL of Montanide ISA VG51 was taken up, after which both syringes were connected to a T-connector. An emulsion was generated by mixing the contents back and forth extensively. After mixing, the syringes were disconnected and a 25 G needle was placed on the syringe containing the emulsion. Per mouse, 100 μL was injected in the left flank subcutaneously.
The vaccine prepared for Group 2 was prepared in an identical manner, only differing by the use of reconstitution composition (750 μL 0.1M citric acid in water and 250 μL PG/EtOH/Cremophor EL 1:2:1, i.e. 0.075M citric acid, 6.25% v/v propylene glycol CAS no. 57-55-6, 12.5% v/v ethanol and 6.25% v/v polyoxyethyleneglyceroltriricinoleate 35 CAS no. 61791-12-6 in water) instead of DMSO and WFI. […]
TC-1 tumor cells, expressing the oncogenic E6 and E7 proteins of HPV16 were cultured in complete IMDM culture medium, supplemented with 400 μg/ml geneticin. […] The tumor size of all mice was monitored at least twice a week using a caliper up to 75 days after tumor challenge.

[2] = system: RAHYNIVTF-specific CD8^+ T cells; test: Strength of T cell response in blood, D^b-[…] tetramer flow cytometry; assay type: in vivo, C57BL/6 mice; settings: for % Tm+ of CD8: emulsified 1:1 with Montanide ISA VG51, s.c.; for % CD62L+ KLRG1+ (% of TM+ CD8 T cells) / % CD62L− KLRG1+ (% of TM+ CD8 T cells): Montanide 1:1
Experimental: On day 9 after vaccination, blood was drawn from the tail vein of all mice. Blood samples were transferred to a 96-wells culture plate and centrifuged for 5 minutes at 1600 rpm. Erythrocytes were lysed by suspending blood cell pellets in Lysis buffer until orange coloration was observed. Subsequently, cells were washed in FACS buffer and stained with the fluorescent antibodies, the D^b-[…]-APC tetramer and 7-AAD mentioned in the Materials section above. After 30 minutes of incubation on ice, cells were washed and analyzed on a BD LSRII flow cytometer in the Leiden University Medical Center (Dept. of Rheumatology).
A study by Van Duikeren et al. (J Immunol, 2012; 189(7): 3397-403) aimed to identify parameters that correlated with the induction of an effective antitumor response. By identifying such biomarkers, different vaccine compositions can be tested in non-tumor bearing mice with prognostic value in tumor models. The authors found a correlation between the expression of KLRG1 and absence of CD62L expression on the one hand and effective antitumor immune responses on the other hand. We determined the percentages of KLRG1- and CD62L-expressing D^b-[…]^+ CD8^+ T cells in the blood of vaccinated mice on day 9 after vaccination using flow cytometry. No difference in percentage of […]-specific KLRG1^+ CD62L^− CD8^+ T cells is observed between groups 3 and 4. Not enough […]-specific CD8+ T cells were detected to reliably study the expression of KLRG1 and CD62L in the groups of mice vaccinated with vehicle only (Group 1 and 2). See Table 10 for the average percentages and standard deviations per group.

[3] = In-use chemical stability of vaccine emulsions by UPLC/MS after extraction of peptides; assay type: physicochemical; settings: peak in reconstituted PRAME-DP-5P
Experimental: For samples showing complete dissolution, an emulsion stability of >2 hours, and a chemical stability of the Drug Product solutions (without additional dilution) of >2 hours, the in-use chemical stability of the vaccine emulsions with Montanide ISA 51 VG was monitored with UPLC/MS. For analysis of chemical stability of the reconstituted and emulsified Drug Products, samples were analyzed at various time points, at least up to 2 hours after dissolution. UPLC/MS analysis was performed according to the method describe above for chemical stability of the Drug Product solution, using an extra sample preparation step for extraction of the peptides from the vaccine emulsion. For sample preparation of emulsified products, the following steps were applied: • Take 300 μL Reconstitution Solution and add this to a 15 mL Greiner tube • Add 100 μL heptane • Add 200 μL of the Drug Product emulsion. Pipet the solution up and down three times. • Vortex the mixture for 30 seconds • Centrifuge the mixture for 5 minutes at 4400 rpm to obtain a two-phase system • With a 20-200 μL pipette, take a 100 μL sample from the bottom layer and transfer to a total recovery UPLC vial. • Analyze with UPLC/UV/MS according to the method described for chemical stability of the Drug Product solutions. Results Solvent Screening for Reconstitution and Emulsification
Analysis of chemical stability was performed by UPLC-MS as described in Example 1, at the section describing methods for analysis of in-use chemical stability of HPV-DP-6P and HPV-DP-7P vaccine emulsions including extraction of the peptides from the vaccine emulsion.
Purity of the Drug Product at different time points was calculated as follows: Purity (%)=100%−Sum of impurities≥0.05% area

[4] = Group 3 average: SLP SEQ ID NO: 6 + CpG ODN1826 in 40% v/v DMSO/WFI, blood day 9 after vaccination
[5] = Group 4 average: SLP SEQ ID NO: 6 + CpG ODN1826 in Reconstitution composition, blood day 9 after vaccination

Substance | outgrowth of TC-1 tumors ([1]; SLP 6 and CpG1826 in DMSO/WFI or Reconstitution composition, Montanide emulsion, s.c. day 8, monitored up to 75 days) | overall tumor outgrowth, comparison of formulations ([1]; SLP 6 dissolved in DMSO/WFI vs Reconstitution composition) | Kaplan-Meier survival ([1]; SLP-vaccinated groups: DMSO/WFI vs Reconstitution composition) | % Tm+ of CD8 ([2]; Group 3 average: SLP SEQ ID NO: 6 + 20 μg CpG ODN1826/mouse in 40% v/v DMSO/WFI, blood day 9 after vaccination) | % CD62L+ KLRG1+ (% of TM+ CD8 T cells) [2, 4] | % CD62L− KLRG1+ (% of TM+ CD8 T cells) [2, 4] | % Tm+ of CD8 ([2]; Group 4 average: SLP SEQ ID NO: 6 + 20 μg CpG ODN1826/mouse in Reconstitution composition (0.1M citric acid/PG/EtOH/Cremophor EL), blood day 9, p < 0.05 vs group 3) | % CD62L+ KLRG1+ (% of TM+ CD8 T cells) [2, 5] | % CD62L− KLRG1+ (% of TM+ CD8 T cells) [2, 5] | percentage of induced D^b-RAYNIVTF (tetramer) positive CD8^+ T cells ([2]; group 4 (Rec. composition+SLP) vs group 3 (DMSO+SLP), p=0.022) | Related substances (≥0.05%) [Area %] ([3]; in-use storage t = 0 h) | Related substances (≥0.05%) [Area %] ([3]; in-use storage t = 1 h) | Related substances (≥0.05%) [Area %] ([3]; in-use storage t = 2 h) | Related substances (≥0.05%) [Area %] ([3]; in-use storage t = 3 h)
GQAEPDRAHYNIVTFCCKCDSTLRLCVQSTHVDIR [SLP 6] | Tumor regression is observed in all mice | No differences were observed in overall tumor outgrowth | no differences between the vaccinated groups | 1.4% | 4.0% | 51.9% | 4.8* % | 4.0% | 52.2% | enhanced tetramer-positive CD8^+ T cell response |  |  |  | 
SEQ ID NO 160: PRAME-derived peptide, component of PRAME DP-5P (LRRLLLSHIHASSYISPEKEEQYIAQFTSQFLS) |  |  |  |  |  |  |  |  |  |  | 13.61 Area % | 13.49 Area % | 13.34 Area % | 13.40 Area %
SEQ ID NO 166: PRAME-derived peptide, component of PRAME DP-5P (SYEDIHGTLHLERLAYLHARLRELLCELGRPSMV) |  |  |  |  |  |  |  |  |  |  | 13.49 Area % | 14.15 Area % | 13.81 Area % | 13.59 Area %

Reference: patent US12097252B2, “Formulation of a peptide vaccine” (priority 2016, dated 2024)
